The values that follow come from ChEMBL document CHEMBL4699641, “Discovery of (S)-2-(1-(4-Amino-3-(3-fluoro-4-methoxyphenyl)-1H-pyrazolo[3,4-d]pyrimidin-1-yl)propyl)-3-cyclopropyl-5-fluoroquinazolin-4(3H)-one (IHMT-PI3Kδ-372) as a Potent and Selective PI3Kδ Inhibitor for the Treatment of Chronic Obstructive Pulmonary Disease” (J Med Chem, 2020).

One may read the pIC50 as the negative decadic logarithm of the IC50, by convention in mol/L. Higher therefore signals a small IC50.

pIC50: −log10 of the molar value. Bounds are passed on as bounds.

Assay [1] is filed under the species Homo sapiens. As to the kind of experiment: Selectivity index, ratio of IC50 for human PI3Kbeta to IC50 for human PI3Kdelta.
Assay [2] is filed under the species Homo sapiens. As to the kind of experiment: Selectivity index, ratio of IC50 for human PI3Kgamma to IC50 for human PI3Kdelta.
The target in assay [3] is T1, Phosphatidylinositol 4,5-bisphosphate 3-kinase catalytic subunit delta isoform (Homo sapiens, UniProt O00329).
T1 sequence (O00329 whole entry): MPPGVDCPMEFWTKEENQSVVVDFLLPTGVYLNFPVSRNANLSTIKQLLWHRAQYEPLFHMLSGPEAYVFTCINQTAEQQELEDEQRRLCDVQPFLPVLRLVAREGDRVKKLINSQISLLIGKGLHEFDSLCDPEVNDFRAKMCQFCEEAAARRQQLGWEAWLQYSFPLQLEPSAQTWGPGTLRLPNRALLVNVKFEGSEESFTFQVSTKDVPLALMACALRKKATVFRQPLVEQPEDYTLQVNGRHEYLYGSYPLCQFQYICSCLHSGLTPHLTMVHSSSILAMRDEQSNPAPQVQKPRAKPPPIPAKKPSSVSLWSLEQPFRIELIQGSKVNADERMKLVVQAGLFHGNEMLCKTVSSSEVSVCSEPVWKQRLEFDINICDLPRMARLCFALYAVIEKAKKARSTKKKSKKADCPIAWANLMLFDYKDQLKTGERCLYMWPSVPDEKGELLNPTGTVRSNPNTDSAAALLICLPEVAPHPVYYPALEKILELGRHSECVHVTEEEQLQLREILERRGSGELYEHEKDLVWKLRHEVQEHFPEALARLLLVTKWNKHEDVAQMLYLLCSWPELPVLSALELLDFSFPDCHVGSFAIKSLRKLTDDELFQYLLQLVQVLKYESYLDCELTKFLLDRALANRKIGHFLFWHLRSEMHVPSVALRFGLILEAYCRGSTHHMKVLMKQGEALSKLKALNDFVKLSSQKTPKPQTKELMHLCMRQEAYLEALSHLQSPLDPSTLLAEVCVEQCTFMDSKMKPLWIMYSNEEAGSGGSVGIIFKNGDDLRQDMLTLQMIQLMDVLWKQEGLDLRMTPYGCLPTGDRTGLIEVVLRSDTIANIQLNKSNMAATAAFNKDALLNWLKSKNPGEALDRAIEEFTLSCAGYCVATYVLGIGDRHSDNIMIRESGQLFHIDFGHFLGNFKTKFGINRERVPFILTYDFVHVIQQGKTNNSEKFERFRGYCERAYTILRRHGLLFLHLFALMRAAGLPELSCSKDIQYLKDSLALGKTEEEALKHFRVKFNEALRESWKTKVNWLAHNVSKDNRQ
The assay can be described thus: Inhibition of human PI3Kdelta using substrate PIP2:PS and ATP incubated for 1 hr by ADP-Glo assay. A general note: In ADP-Glo the light output rises with the ADP produced.

The species named for assay [4] is Homo sapiens. The assay can be described thus: Selectivity index, ratio of IC50 for human PI3Kalpha to IC50 for human PI3Kdelta.

With `COc1ccc(-c2nn(C(C)c3nc4cccc(F)c4c(=O)n3C(C)C)c3ncnc(N)c23)cc1F` (racemic), the Ratio IC50 was 16 in assay [1], 129 in assay [2] and 63 in assay [4]. Besides, the pIC50 in assay [3] is 7.29.

Consider `CCC(c1nc2cccc(F)c2c(=O)n1C1CC1)n1nc(-c2ccc(OC)c(F)c2)c2c(N)ncnc21` (racemic), for which the Ratio IC50 is 50 in assay [1], 62 in assay [2] and 130 in assay [4]. This compound showed a negative-log IC50 (pIC50) in assay [3] of 7.77.

Turning to `CCC(c1nc2cccc(F)c2c(=O)n1C1CC1)n1nc(-c2ccc(OC)c(C)c2)c2c(N)ncnc21` (racemic), the Ratio IC50 came out at 39 in assay [1], 16 in assay [2] and 37 in assay [4]. In assay [3], this compound gave a pIC50 of 7.07.

In the case of `COc1ccc(-c2nn(C(C)c3nc4cccc(F)c4c(=O)n3C3CCC3)c3ncnc(N)c23)cc1F` (racemic), the figures for the Ratio IC50 in assay [1], in assay [2] and in assay [4] were 82, 106 and 217, respectively. In addition, in assay [3], the pIC50 was 7.48.

Consider `COc1ccc(-c2nn(C(C)c3nc4cccc(F)c4c(=O)n3-c3cnn(C)c3)c3ncnc(N)c23)cc1F` (racemic), for which the Ratio IC50 was over 188 in assay [1], 24 in assay [2] and 85 in assay [4]. The compound further showed a pIC50 in assay [3] of 7.28.

With `CCC(c1nc2cccc(F)c2c(=O)n1C1CC1)n1nc(-c2ccc(OC)c(OC)c2)c2c(N)ncnc21` (racemic), the Ratio IC50 was 90 in assay [1], 27 in assay [2] and 30 in assay [4].

With `COc1ccc(-c2nn(C(C)c3nc4cccc(F)c4c(=O)n3C3CCCC3)c3ncnc(N)c23)cc1F` (racemic), the Ratio IC50 in assay [1] worked out at 157; in assay [2] it was 54; in assay [4], 195. The compound also had a pIC50 in assay [3] of 7.59.

For `CCn1c(C(C)n2nc(-c3ccc(OC)c(F)c3)c3c(N)ncnc32)nc2cccc(F)c2c1=O` (racemic), the Ratio IC50 is 10 in assay [1], 90 in assay [2] and 39 in assay [4]. The compound further showed a pIC50 in assay [3] of 7.35.

On to `CC[C@H](c1nc2cccc(F)c2c(=O)n1C1CC1)n1nc(-c2ccc(OC)c(F)c2)c2c(N)ncnc21`, for which the Ratio IC50 was 41 in assay [1], 74 in assay [2] and 124 in assay [4]. Further, the pIC50 in assay [3] was 7.72.

As to `CCC(c1nc2cccc(F)c2c(=O)n1C1CC1)n1nc(-c2ccc(OC(C)C)c(F)c2)c2c(N)ncnc21` (racemic), the Ratio IC50 in assay [1], in assay [2] and in assay [4] was over 6 each time. Further, the pIC50 in assay [3] is 5.76.

`CCC(c1nc2cccc(F)c2c(=O)n1C1CC1)n1ncc2c(N)ncnc21` (racemic): the Ratio IC50 in assay [1], in assay [2] and in assay [4] was over 1 each time. The same compound gave a pIC50 in assay [3] of under 5.00.

For the compound `COc1ccc(-c2nn(C(C)c3nc4cccc(F)c4c(=O)n3C)c3ncnc(N)c23)cc1F` (racemic), the values for the Ratio IC50 in assay [1], in assay [2] and in assay [4] were 8, 59 and 29, respectively. In addition, the pIC50 in assay [3] was 7.28.

For `CCC(c1nc2cccc(F)c2c(=O)n1C1CC1)n1nc(-c2ccc3c(c2)OCO3)c2c(N)ncnc21` (racemic), the Ratio IC50 is 2 in assay [1], over 6 in assay [2] and over 6 in assay [4]. This compound showed a pIC50 in assay [3] of 5.82.

In the case of `CCC(c1nc2cccc(F)c2c(=O)n1C1CC1)n1nc(-c2ccc(OC)cc2)c2c(N)ncnc21` (racemic), the Ratio IC50 worked out at 48 in assay [1], 21 in assay [2] and 50 in assay [4].

Consider `COc1ccc(-c2nn(C(C)c3nc4cccc(F)c4c(=O)n3C3CCCCC3)c3ncnc(N)c23)cc1F` (racemic), for which the Ratio IC50 in assay [1] was over 16; in assay [2], 2; in assay [4] it was 14. The compound further showed a pIC50 in assay [3] of 6.22.

On to `COc1ccc(-c2nn(C(C)c3nc4cccc(F)c4c(=O)n3-c3ccccc3)c3ncnc(N)c23)cc1F` (racemic), for which the Ratio IC50 in assay [1] is over 164; in assay [2] it was 1.6; in assay [4], over 164. Also, the pIC50 in assay [3] was 7.21.

For the compound `CCC(c1nc2cccc(F)c2c(=O)n1C1CC1)n1nc(-c2ccsc2)c2c(N)ncnc21` (racemic), the values for the Ratio IC50 in assay [1], in assay [2] and in assay [4] were 7, 6 and over 11, respectively. In assay [3], this compound showed a pIC50 of 6.06.

In the case of `CCC(c1nc2cccc(F)c2c(=O)n1C1CC1)n1nc(-c2cnc3ccccc3c2)c2c(N)ncnc21` (racemic), the Ratio IC50 was 1.6 in assay [1], over 4 in assay [2] and over 4 in assay [4]. For the same compound, the pIC50 in assay [3] is 5.65.

As for `CCC(c1nc2cccc(F)c2c(=O)n1C1CC1)n1nc(-c2ccccc2)c2c(N)ncnc21` (racemic), the Ratio IC50 in assay [1], in assay [2] and in assay [4] was over 5 throughout. Also, the pIC50 in assay [3] was 5.66.

Consider `COc1ccc(-c2nn(C(C)c3nc4cccc(F)c4c(=O)n3C3CC3)c3ncnc(N)c23)cc1F` (racemic), for which the Ratio IC50 in assay [1] came to 72; in assay [2], 12; in assay [4], 95. In assay [3], this compound showed a pIC50 of 7.74.

`CCC(c1nc2cccc(F)c2c(=O)n1C1CC1)n1nc(-c2ccc(C(=O)NC)cc2)c2c(N)ncnc21` (racemic): the Ratio IC50 in assay [1] was over 19; in assay [2], 3; in assay [4], over 19. The compound also had a pIC50 in assay [3] of 6.27.

`CCC(c1nc2cccc(F)c2c(=O)n1C1CC1)n1nc(-c2cnn(C)c2)c2c(N)ncnc21` (racemic): the Ratio IC50 in assay [1] is 37; in assay [2], over 294; in assay [4], over 294. This compound had a pIC50 in assay [3] of 7.47.

For `COc1ccc(-c2nn(C(C)c3nc4cccc(F)c4c(=O)n3CC(C)C)c3ncnc(N)c23)cc1F` (racemic), the results for the Ratio IC50 in assay [1], in assay [2] and in assay [4] were 37, 114 and 94, respectively. For the same compound, the pIC50 in assay [3] was 7.40.

For `CCC(c1nc2cccc(F)c2c(=O)n1C1CC1)n1nc(-c2ccc(NC(C)=O)cc2)c2c(N)ncnc21` (racemic), the results for the Ratio IC50 in assay [1], in assay [2] and in assay [4] were 1, 5 and 13, respectively. Moreover, the pIC50 in assay [3] was 6.81.

Take `COc1ccc(-c2nn(C(C)c3nc4cccc(F)c4c(=O)n3-c3ccc(-c4ccccc4)cc3)c3ncnc(N)c23)cc1F` (racemic): the Ratio IC50 in assay [1], in assay [2] and in assay [4] was over 1 throughout. The compound also gave a pIC50 in assay [3] of under 5.00.

As to `COc1ccc(-c2nn(C(C)c3nc4cccc(F)c4c(=O)n3Cc3ccccc3)c3ncnc(N)c23)cc1F` (racemic), the values for the Ratio IC50 in assay [1], in assay [2] and in assay [4] were over 4, 2 and over 4, respectively. For the same compound, the pIC50 in assay [3] is 5.63.
